In PubChem BioAssay AID292 (DTP/NCI, 2004):
“And” between values parts separate entries of the source, which are not always exact repeats. Equal values may be shown once. Inconclusive results and toxic doses are left out.

System: B6C3F1 mice, ip Sarcoma M5076, median survival T/C
Experiment: NCI In Vivo Anticancer Drug Screen. Data for tumor model Sarcoma M5076 (intraperitoneal) in B6C3F1 mice
Conditions: endpoint: median survival time, higher = longer survival
In short: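 Survival measured in treated (T) and vehicle control (C) mice with transplantable tumour; result given as T divided by C.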

[1] = dose: 50.0 mg/kg/injection, schedule: Q04DX004 (ip), vehicle: Klucel (hydroxypropylcellulose) (HPC)
[2] = dose: 100.0 mg/kg/injection, schedule: Q04DX004 (ip), vehicle: Klucel (hydroxypropylcellulose) (HPC)
[3] = dose: 12.5 mg/kg/injection, schedule: Q04DX004 (ip), vehicle: Klucel (hydroxypropylcellulose) (HPC)
[4] = dose: 25.0 mg/kg/injection, schedule: Q04DX004 (ip), vehicle: Klucel (hydroxypropylcellulose) (HPC)
[5] = dose: 37.5 mg/kg/injection, schedule: Q04DX004 (ip), vehicle: saline with Tween-80
[6] = dose: 75.0 mg/kg/injection, schedule: Q04DX004 (ip), vehicle: saline with Tween-80
[7] = dose: 150.0 mg/kg/injection, schedule: Q04DX004 (ip), vehicle: saline with Tween-80
[8] = dose: 25.0 mg/kg/injection, schedule: Q04DX004 (ip), vehicle: saline
[9] = dose: 50.0 mg/kg/injection, schedule: Q04DX004 (ip), vehicle: saline
[10] = dose: 100.0 mg/kg/injection, schedule: Q04DX004 (ip), vehicle: saline
[11] = dose: 200.0 mg/kg/injection, schedule: Q04DX004 (ip), vehicle: saline
[12] = dose: 25.0 mg/kg/injection, schedule: Q04DX004 (ip), vehicle: saline with Tween-80
[13] = dose: 50.0 mg/kg/injection, schedule: Q04DX004 (ip), vehicle: saline with Tween-80
[14] = dose: 100.0 mg/kg/injection, schedule: Q04DX004 (ip), vehicle: saline with Tween-80
[15] = dose: 200.0 mg/kg/injection, schedule: Q04DX004 (ip), vehicle: saline with Tween-80
[16] = dose: 400.0 mg/kg/injection, schedule: Q04DX004 (ip), vehicle: saline

SMILES: CCOC1NC(=O)Oc2ccccc21 (stereo not drawn)
- T/C [1]: 107 % of control
- T/C [2]: 100 % of control
- T/C (dose: 200.0 mg/kg/injection, schedule: Q04DX004 (ip), vehicle: Klucel (hydroxypropylcellulose) (HPC)): 99 % of control
- T/C (dose: 400.0 mg/kg/injection, schedule: Q04DX004 (ip), vehicle: Klucel (hydroxypropylcellulose) (HPC)): 121 % of control

SMILES: O=S(=O)(c1cccc(N=C=S)c1)c1cccc(N=C=S)c1
- T/C [3]: 99 % of control
- T/C [4]: 94 % of control
- T/C [1]: 103 % of control
- T/C [2]: 99 % of control

SMILES: CN=C(N)c1ccc(N=C(N)c2ccc(C(N)=Nc3ccc(C(N)=NC)cc3)cc2)cc1
- T/C (dose: 3.75 mg/kg/injection, schedule: Q01DX005 (ip), vehicle: saline): 110 % of control
- T/C (dose: 7.5 mg/kg/injection, schedule: Q01DX005 (ip), vehicle: saline): 116 % of control
- T/C (dose: 7.5 mg/kg/injection, schedule: Q04DX004 (ip), vehicle: saline): 88 % of control
- T/C (dose: 15.0 mg/kg/injection, schedule: Q01DX005 (ip), vehicle: saline): 124 % of control
- T/C (dose: 15.0 mg/kg/injection, schedule: Q04DX004 (ip), vehicle: saline): 98 % of control
- T/C (dose: 18.0 mg/kg/injection, schedule: Q01DX005 (ip), vehicle: saline): 156 % of control
- T/C (dose: 30.0 mg/kg/injection, schedule: Q04DX004 (ip), vehicle: saline): 109 % of control

SMILES: CCn1c2ccc(N)cc2c2c3ncc4cccn4c3ccc21
- T/C [5]: 101 % of control
- T/C [6]: 94 % of control
- T/C [7]: 97 % of control
- T/C (dose: 300.0 mg/kg/injection, schedule: Q04DX004 (ip), vehicle: saline with Tween-80): 89 % of control

SMILES: CCN(CC)CCCC(C)Nc1c2ccc(Cl)cc2nc2ccc(OC)cc12 (stereo not drawn)
- T/C [8]: 111 % of control
- T/C [9]: 115 % of control
- T/C [10]: 112 % of control
- T/C [11]: 91 % of control

SMILES: CN1c2ccccc2C(=O)N2C(=O)CCC21C (stereo not drawn)
- T/C (dose: 18.75 mg/kg/injection, schedule: Q04DX004 (ip), vehicle: saline with Tween-80): 100 % of control
- T/C [5]: 100 % of control
- T/C [6]: 102 % of control
- T/C [7]: 101 % of control

SMILES: CC1/C=C/C=C/CC/C=C/C=C/C=C/C=C/C(OC2OC(C)C(O)C(N)C2O)CC2OC(CC(O)C(O)CCC(O)CC(O)CC(O)CC(=O)OC(C)C(C)C1O)CC(O)C2C(=O)O (stereo not drawn)
- T/C (dose: 6.25 mg/kg/injection, schedule: Q04DX004 (ip), vehicle: saline with Tween-80): 122 % of control
- T/C (dose: 12.5 mg/kg/injection, schedule: Q04DX004 (ip), vehicle: saline with Tween-80): 117 % of control
- T/C [12]: 118 % of control and 122 % of control
- T/C [13]: 96 % of control and 97 % of control
- T/C [14]: 96 % of control and 107 % of control

SMILES: O=S1(=O)CS(=O)(=O)OCCO1
- T/C (dose: 6.25 mg/kg/injection, schedule: Q01DX009 (oral), vehicle: Klucel (hydroxypropylcellulose) (HPC)): 160 % of control
- T/C (dose: 6.25 mg/kg/injection, schedule: Q04DX004 (ip), vehicle: Klucel (hydroxypropylcellulose) (HPC)): 165 % of control
- T/C (dose: 12.5 mg/kg/injection, schedule: Q01DX001 (oral), vehicle: Klucel (hydroxypropylcellulose) (HPC)): 109 % of control
- T/C (dose: 12.5 mg/kg/injection, schedule: Q01DX009 (oral), vehicle: Klucel (hydroxypropylcellulose) (HPC)): 192 % of control
- T/C [3]: 180 % of control
- T/C (dose: 25.0 mg/kg/injection, schedule: Q01DX009 (oral), vehicle: Klucel (hydroxypropylcellulose) (HPC)): 300 % of control
- T/C [4]: 267 % of control and 290 % of control
- T/C (dose: 50.0 mg/kg/injection, schedule: Q01DX009 (oral), vehicle: Klucel (hydroxypropylcellulose) (HPC)): 300 % of control
- T/C [1]: 267 % of control and 300 % of control
- T/C (dose: 100.0 mg/kg/injection, schedule: Q01DX001 (oral), vehicle: Klucel (hydroxypropylcellulose) (HPC)): 300 % of control

SMILES: OC1OCC(COc2ccc(Cl)cc2)OC1O (stereo not drawn)
- T/C [13]: 103 % of control
- T/C [14]: 114 % of control
- T/C [15]: 93 % of control
- T/C (dose: 400.0 mg/kg/injection, schedule: Q04DX004 (ip), vehicle: saline with Tween-80): 104 % of control

SMILES: N#CC1C(=O)NC(=S)NC1c1ccco1 (stereo not drawn)
- T/C [1]: 98 % of control
- T/C [2]: 100 % of control

SMILES: CN1C(=O)C2CC(O)C(SC3CC4C(=O)N(C)C(=O)C4CC3O)CC2C1=O (stereo not drawn)
- T/C (dose: 37.5 mg/kg/injection, schedule: Q04DX004 (ip), vehicle: water): 101 % of control
- T/C (dose: 75.0 mg/kg/injection, schedule: Q04DX004 (ip), vehicle: water): 105 % of control
- T/C (dose: 150.0 mg/kg/injection, schedule: Q04DX004 (ip), vehicle: water): 102 % of control
- T/C (dose: 300.0 mg/kg/injection, schedule: Q04DX004 (ip), vehicle: water): 97 % of control
- T/C (dose: 600.0 mg/kg/injection, schedule: Q04DX004 (ip), vehicle: water): 107 % of control

SMILES: O=C(Oc1ccccc1)c1cc(O)c(O)c(O)c1
- T/C [12]: 97 % of control
- T/C [13]: 93 % of control
- T/C [14]: 92 % of control
- T/C [15]: 88 % of control

SMILES: O=C1C(=O)N(c2ccccc2Cl)C(=O)N1Cc1ccccc1
- T/C (dose: 43.75 mg/kg/injection, schedule: Q04DX004 (ip), vehicle: Klucel (hydroxypropylcellulose) (HPC)): 102 % of control
- T/C (dose: 87.5 mg/kg/injection, schedule: Q04DX004 (ip), vehicle: Klucel (hydroxypropylcellulose) (HPC)): 98 % of control
- T/C (dose: 175.0 mg/kg/injection, schedule: Q04DX004 (ip), vehicle: Klucel (hydroxypropylcellulose) (HPC)): 109 % of control
- T/C (dose: 350.0 mg/kg/injection, schedule: Q04DX004 (ip), vehicle: Klucel (hydroxypropylcellulose) (HPC)): 94 % of control
- T/C (dose: 700.0 mg/kg/injection, schedule: Q04DX004 (ip), vehicle: Klucel (hydroxypropylcellulose) (HPC)): 93 % of control

SMILES: O=S(O)Cc1ccccc1CSSSCc1ccccc1CS(=O)O
- T/C [9]: 105 % of control
- T/C (dose: 50.0 mg/kg/injection, schedule: Q04DX004 (ip), vehicle: suspension in saline): 111 % of control
- T/C [10]: 103 % of control
- T/C (dose: 100.0 mg/kg/injection, schedule: Q04DX004 (ip), vehicle: suspension in saline): 95 % of control
- T/C [11]: 94 % of control
- T/C [16]: 99 % of control
- T/C (dose: 400.0 mg/kg/injection, schedule: Q04DX004 (ip), vehicle: suspension in saline): 91 % of control
- T/C (dose: 800.0 mg/kg/injection, schedule: Q04DX004 (ip), vehicle: saline): 95 % of control
- T/C (dose: 800.0 mg/kg/injection, schedule: Q04DX004 (ip), vehicle: suspension in saline): 91 % of control

SMILES: COc1nc2cc3c(cc2n2cccc12)oc1ccccc13
- T/C (dose: 0.38 mg/kg/injection, schedule: Q04DX004 (ip), vehicle: saline with Tween-80): 92 % of control
- T/C (dose: 0.75 mg/kg/injection, schedule: Q04DX004 (ip), vehicle: saline with Tween-80): 89 % of control

SMILES: C1CCC(NC2CCCCC2)CC1
- T/C (dose: 75.0 mg/kg/injection, schedule: Q04DX004 (ip), vehicle: saline): 103 % of control
- T/C (dose: 150.0 mg/kg/injection, schedule: Q04DX004 (ip), vehicle: saline): 103 % of control
- T/C (dose: 300.0 mg/kg/injection, schedule: Q04DX004 (ip), vehicle: saline): 100 % of control

SMILES: COc1cc2cc(c1Cl)N(C)C(=O)C[C@H](OC(=O)[C@H](C)N(C)C(C)=O)[C@]1(C)O[C@H]1[C@H](C)[C@@H]1C[C@@](O)(NC(=O)O1)[C@H](OC)C=C/C=C(\C)C2
- T/C (dose: 18.75 micrograms/kg/injection, schedule: Q04DX004 (ip), vehicle: saline): 101 % of control
- T/C (dose: 37.5 micrograms/kg/injection, schedule: Q04DX004 (ip), vehicle: saline): 103 % of control and 119 % of control
- T/C (dose: 37.5 micrograms/kg/injection, schedule: Q04DX005 (ip), vehicle: saline): 108 % of control and 217 % of control
- T/C (dose: 75.0 micrograms/kg/injection, schedule: Q04DX004 (ip), vehicle: saline): 112 % of control
- T/C (dose: 75.0 micrograms/kg/injection, schedule: Q04DX005 (ip), vehicle: saline): 119 % of control
- T/C (dose: 150.0 micrograms/kg/injection, schedule: Q04DX004 (ip), vehicle: saline): 114 % of control
- T/C (dose: 300.0 micrograms/kg/injection, schedule: Q04DX004 (ip), vehicle: saline): 114 % of control

SMILES: Nc1ccn([C@@H](C=O)C[C@@H](C=O)CO)c(=O)n1
- T/C [8]: 99 % of control
- T/C [9]: 99 % of control
- T/C [10]: 103 % of control
- T/C [11]: 108 % of control
- T/C [16]: 118 % of control
